Marks after values point to notes of the source that are not given here.
Key:
[1] = adsorption onto glass in liquid form; type: physicochemical; details: glass container
Excerpt: These formulations may then be lyophilized. Surfactants can cause denaturation of protein, both of hydrophobic disruption and by salt bridge separation. Relatively low concentrations of surfactant may exert a potent denaturing activity, because of the strong interactions between surfactant moieties and the reactive sites on proteins. However, judicious use of this interaction can stabilize proteins against interfacial or surface denaturation. Surfactants which could further stabilize the peptide may optionally be present in the range of about 0.001 to 0.3% (w/v) of the total formulation and include polysorbate 80 (i.e., polyoxyethylene(20) sorbitan monooleate), CHAPS® (i.e., 3-[(3-cholamidopropyl) dimethylammonio] 1-propanesulfonate), Brij® (e.g., Brij 35, which is (polyoxyethylene (23) lauryl ether), poloxamer, or another non-ionic surfactant.

[2] = test system: insulin-stimulated glycogen synthesis in soleus muscle; assay: Soleus Muscle Assay; type: cell-based, rat
Protocol: Concentrations of peptide dissolved in carrier-free buffers are determined by quantitative amino acid analysis, as described therein. The ability of compounds to act as agonists in this assay is determined by measuring EC50 values. […] Similar results were obtained with other agonist compounds listed above.

DIO Levin rats = assay: Example 5: amylin versus pramlintide; type: in vivo, rat; details: 76 nmol/kg/day, osmotic mini-pump, 24 days
Protocol: 48 DIO Levin rats (an in-bred model of diet induced obesity) were used in this study. […] Food intake and body weight was measured daily. […] The pair-fed groups were only allowed to consume the daily intakes of their respective drug-treated groups. For body composition, rats were scanned in a rodent NMR before treatment and after sacrifice (at the end of the study), allowing for the ability to calculate changes in carcass fat and protein (e.g., lean tissue).

[3] = pramlintide 180 mcg TID, 1 day of treatment; cited from earlier work
[4] = in vivo; cited from earlier work
[5] = test system: Retired female breeder rats on high fat diet; assay: Example 4: amylin with prior or concurrent food restriction; type: in vivo, rat; details: for Estimated Mean Weight change from treatment: amylin 100 μg/kg/day
Excerpt: Retired female breeder rats were maintained on a high fat diet (40% fat) for 8 weeks. Prior to drug treatment, rats were either ad-lib fed or food restricted to 95% of their starting body weight.

high fat-fed rats = assay: Example 2: three doses of amylin, food intake and body weight; type: in vivo, rat
Excerpt: (§1) Low fat-fed rats (11% kcal from fat, D12329, Research Diets) were also implanted with pumps delivering vehicle. Food intake and body weight measurements were obtained weekly.

[6] = test system: Lean, male Harlan SPRAGUE DAWLEY (HSD) rats; assay: Example 3: chronic amylin infusion, lean rats; type: in vivo, rat; parameters: Fat: dose or concentration left out as unconfirmed
Protocol: (§2) Lean, male Harlan SPRAGUE DAWLEY® (HSD) (Harlan 7012) rats were maintained on “standard chow” (˜5% calories from fat).
(§3) Food intake and body weight were recorded daily (FIGS. 5, 6A, 6B, 7, 8A, and 8B).
(§4) On the final day of the experiment, rats were deeply anaesthetized and sacrificed by cardiac puncture. Plasma triglycerides, glucose, and cholesterol were measured on a COBAS Mira plasma Analyzer (Roche). Plasma leptin and insulin were measured using Linco Research kits. (See, FIGS. 9A-9F and 10A-10E.) Body composition was measured by chemical analysis (Covance Laboratories, Madison, Wis.). Fat pad weights of the epididymal, retroperitoneal, subcutaneous, and perirenal fat pads (all unilateral; analysis only done in DIO animals) were carefully dissected and weighed (FIGS. 12A-12D). In analyzing the tissue biochemistry, […] were powdered under liquid N2 and extracted in chloroform:methanol. 0.6% NaCl solution was then added and the tubes were vortexed, centrifuged, and the organic phase was transferred to glass scintillation vials and dried under a stream of N2. Dried lipids were resuspended and triglycerides were quantified by enzymatic assay (Pointe Scientific, Inc.). Tissue glycogen was measured by the amyloglucosidase method. (See FIGS. 11A-11D.)
(§5) All data are represented as mean±SEM. Analysis of variance (ANOVA) and Bonferroni post-hoc tests were used to test for group differences (SYSTAT® for Windows). A P-value<0.05 was considered significant. Graphs were generated using PRISM® 4 for Windows (Graphpad Software).

DIO (Levin) male rats = assay: Example 3: chronic amylin infusion, DIO rats; type: in vivo, rat; parameters: Ash: dose or concentration left out as unconfirmed
Protocol: as §2, §3, §4, §5

[7] = test system: High fat-fed male SPRAGUE-DAWLEY rats (DIO); assay: Example 1: chronic infusion, food consumption, body weight, body composition; type: in vivo, rat; details: obesity-prone rats, vs vehicle control
Protocol: as §1
Rats were sacrificed by cardiac puncture under anesthesia. Triglyceride levels were measured on a COBAS Mira plasma analyzer (Roche), and leptin and insulin were assayed according to Linco Research rat RIA kits. Body composition was measured by chemical analysis (Covance Laboratories, Madison, Wis.).
All data are represented as mean±SEM. Analysis of variance was used to test for group differences.
The rats were fattened for 10 weeks prior to drug treatment. The high fat-fed rats were designated as obesity-prone (top 50% of weight gainers) or obesity-resistant (bottom 50%) based on the amount of weight gained through week 7.

[8] = amylin 300 mg/kg/day, 28-day pump
[9] = DIO rats, amylin 300 mg/kg/day, 28-day pump

For `CC[C@H](C)[C@H](NC(=O)[C@@H]1CCCN1C(=O)CNC(=O)[C@H](Cc1ccccc1)NC(=O)[C@H](CC(N)=O)NC(=O)[C@H](CC(N)=O)NC(=O)[C@H](CO)NC(=O)[C@H](CO)NC(=O)[C@H](Cc1c[nH]cn1)NC(=O)[C@@H](NC(=O)[C@H](CC(C)C)NC(=O)[C@H](Cc1ccccc1)NC(=O)[C@H](CC(N)=O)NC(=O)[C@H](C)NC(=O)[C@H](CC(C)C)NC(=O)[C@H](CCCNC(=N)N)NC(=O)[C@H](CCC(N)=O)NC(=O)[C@@H](NC(=O)[C@H](C)NC(=O)[C@@H]1CSSC[C@H](NC(=O)[C@@H](N)CCCCN)C(=O)N[C@@H](CC(N)=O)C(=O)N[C@@H]([C@@H](C)O)C(=O)N[C@@H](C)C(=O)N[C@@H]([C@@H](C)O)C(=O)N1)[C@@H](C)O)C(C)C)C(=O)N[C@@H](CC(C)C)C(=O)N1CCC[C@H]1C(=O)N1CCC[C@H]1C(=O)N[C@H](C(=O)N[C@@H](CC(N)=O)C(=O)N[C@H](C(=O)NCC(=O)N[C@@H](CO)C(=O)N[C@@H](CC(N)=O)C(=O)N[C@H](C(=O)N[C@@H](Cc1ccc(O)cc1)C(N)=O)[C@@H](C)O)C(C)C)[C@@H](C)O` [^25, 28, 29Pro-h-Amylin], the “tendency to adsorb onto glass” value [1] was “does not have a tendency to adsorb onto the glass”, the “amylin agonist activity (in words)” value [2] was “act as amylin agonists” and the “antagonist activity in soleus muscle assay (in words)” value [2] was “negligible antagonist activity”. For the same molecule, the body composition (DIO Levin rats) was “favorable effects on body composition”, the body weight gain (DIO Levin rats) was “significant effect on slowing body weight gain” and the “reduction in mean daily caloric intake” value [3] was about 19%.
For “CSNLSTCVLGKLSQELHKLQTYPRTNTGSGTP [salmon calcitonin]”, the “delayed effect, peak levels still maintained at” value [4] is given as 240 min.
In the case of “amylin: Amylin synthesized by Amylin Pharmaceuticals, Inc. by solid-phase chemistry; species not stated in the examples (KCNTATCATQRLANFLVHSSNNFGAILSSTNVGSNTY; Islet amyloid polypeptide; UniProt P10997 34-70, looked up)”, the “Estimated Mean Weight change from treatment” value (“Estimated Mean Weight change” for short) ([5]; Ad-lib prior, Ad-lib during) is reported as -21.8 ± 1.4 g, the “Estimated Mean Weight change” value ([5]; Ad-lib prior, Restricted during) is reported as -23.1 ± 2.3 g and the “Estimated Mean Weight change” value ([5]; Restricted prior, Ad-lib during) is reported as -18.2 ± 2.5 g. The “Estimated Mean Weight change” value ([5]; Restricted prior, Restricted during) was -17.1 ± 2.0 g, the body weight ([5]; all treatment conditions) was “significantly reduced body weight under all treatment conditions” and the food intake ([5]; vs vehicle treated counterparts) was “ate less than their vehicle treated counterparts”. For the same molecule, the “effect on food intake tapers off after” value [4] was 60 min, the “onset of effect on food intake” value [4] was at most 30 min and the body weight gain (high fat-fed rats; 30 μg/kg/day) was “reduction in body weight gain”. The “effects on food intake and body weight” value (high fat-fed rats; 30, 100, 300 μg/kg/day) was “dose-dependent”, the “weight gain compared to vehicle rats” value [6] was “significant reduction in weight gain” and the Moisture [6, 8] was 67.57 ± 0.7 %. The Protein [6, 8] was 20.67 ± 0.74%, the Weight [6, 8] was 392.25* g and the Fat ([6]; amylin, 28-day pump) was 7.2 ± 1.5 %. For the same molecule, the percent body fat ([6]; relative to pair-fed) was “lower percent body fat relative to pair-fed”, the body composition (DIO Levin rats) was “favorable effects on body composition” and the body weight gain (DIO Levin rats) was “significant effect on slowing body weight gain”. The percent body fat (DIO (Levin) male rats; DIO rats) was “significant decrease in percent body fat”, the percent protein (DIO (Levin) male rats; DIO rats) was “significant preservation or gain in percent protein” and the “weight gain compared to vehicle rats” value (DIO (Levin) male rats; DIO rats) was “significant reduction in weight gain”. For the same molecule, the Ash (DIO (Levin) male rats; DIO rats, 28-day pump) was 1.65 ± 0.34%, the Fat (DIO (Levin) male rats; [9]) was 24.3 ± 6.5 % and the Moisture (DIO (Levin) male rats; [9]) was 56.68 ± 4.4 %. The Protein (DIO (Levin) male rats; [9]) was 18.09 ± 1.68 %, the Weight (DIO (Levin) male rats; [9]) was 548.94* g and the muscle glycogen content (DIO (Levin) male rats; rat, in vivo) was “significantly reduced muscle glycogen content”. The “protein (body composition)” value [7] was “increase in protein”.

Reference: patent publication US8748375B2 (Amylin Pharmaceuticals, LLC, priority 2009, dated 2014)
